Results on one compound are retold here after patent US11130960B2, “Methods for conferring or enhancing herbicide resistance on plants and/or alga with protoporphyrinogen oxidase variants” (FARM HANNONG CO., LTD., priority 2014, dated 2021).

Assay [1] deals with mutant AtPPO1 transformant. The assay can be described thus: Seed germination on ½ MS medium containing herbicide. Format: in vivo, Arabidopsis thaliana. Particulars: ½ MS medium containing 70 nM tiafenacil.
Assay [2] concerns Halothece sp. PCC 7418 strain. As to the kind of experiment: Herbicide resistance test of Halothece sp. PCC 7418 strain in CRBIP medium. Format: cell-based. The following applies: 8 days after treatment, CRBIP Medium 1538. Here is the method:
Halothece sp. PCC 7418 strain was cultured in CRBIP Medium 1538 (Institut Pasteur, France). CRBIP Medium 1538 is a mixed medium of ASNIII and Turks Island Salts 4× at a ratio of 1:1(v/v), and ASNIII medium was composed of 25.0 g of NaCl, 3.5 g of MgSO4.7H2O, 2.0 g of MgCl2.6H2O, 0.5 g of KCl, 0.5 g of CaCl2.2H2O, 0.75 g of NaNO3, 0.02 g of K2HPO4.3H2O, 0.04 g of NaCO3, 2.5 ml of ammonium iron(III) citrate/citric acid monohydrate solution [a mixture of 300 mg of ammonium iron(III) citrate, 300 mg of citric acid monohydrate, and 250 ml of distilled water], 2.5 ml of magnesium titriplex dihydrate solution [a mixture of 0.1 g of Mg EDTA and 500 ml of distilled water], 1 ml of trace metal A5+Co [a mixture of 2.86 g of H3BO3, 1.81 g of MnCl2.4H2O, 0.222 g of ZnSO4.7H2O, 0.39 g of NaMoO4.2H2O, 0.079 g of CuSO4.5H2O, 0.049 g of Co(NO3)2.6H2O and 1000 ml of distilled water], and 1000 ml of distilled water. Turks Island Salts 4× was composed of 112 g of NaCl, 2.68 g of KCl, 22 g of MgCl2.6 H2O, 27.7 g of MgSO4.7 H2O, 5.8 g of CaCl2.2 H2O, and 1000 ml of distilled water. ASNIII medium and Tursk Island Salts 4× were autoclaved at 120° C. for 20 minutes, respectively and then mixed at a ratio of 1:1(v/v).
5 ml of the above culture medium was added to a test tube, and 2 or 10 μM of Tiafenacil was added thereto or not. The seed-cultured Halothece sp. […]

Consider `COC(=O)CCNC(=O)C(C)Sc1cc(-n2c(=O)cc(C(F)(F)F)n(C)c2=O)c(F)cc1Cl` (centres unmarked) [Tiafenacil], for which the seed germination entry in assay [1] is “showed germination”. Moreover, in assay [2], the “concentration at which growth of the strain was maintained” value stood at 10 µM.
